Source: patent publication US4505916A, “Method for the treatment of psychoneurotic states by administration of derivatives of 2-(4-piperidyl)-1-(4-quinolyl)-ethanone” (Pharmindustrie, priority 1979, dated 1985)

biological target: cerebral receiving sites of the benzodiazepines; assay: not given; details: 3H Diazepam; constant used in the formula for Ki; read-out: KD, constant of affinity; cited from earlier work

Compound | Kd [µM]
CN1C(=O)CN=C(c2ccccc2)c2cc(Cl)ccc21 [^3 H Diazepam] | 0.00274

system: ventricular arhythmia caused by aconitine; assay: Aconitine test on the rat (antiarhythmic activity); type: in vivo; details: iv
Method: The antiarhythmic activity of the compounds of the present invention has been shown with the help of the aconitine test on the rat.
The principle of the technique rests on the induction time of the ventricular arhythmia caused by aconitine which slowly perfused in rats. An antiarhythmic substance retards the appearance of the arhythmia and the delay is proportional to the activity of the molecule.
Groups of 5 male rats are used. An individual anaesthesia is carried out (10% urethane: 1 g/kg/ip) to permit a catheterisation of the vein of the penis. The electrocardiogram is recorded. At the time T=0 the substance studied is injected in the form of an aqueous solution, at the rate of 2.5 ml of solution per kg in 30 seconds. At the time T=90 seconds, that is 1 minute after the end of the injection, the aconitine is perfused at the rate of 20 μg per minute until the appearance of supraventricular extra systoles. The time of perfusion of the aconitine is noted.
The results are expressed by an ED50 which is the dose in mg/kg increasing by 50% the time of perfusion of the aconitine in comparison with the perfusion time of aconitine for the control animals.

Compound | ED50 [mg/kg]
C=C[C@@H]1CNCC[C@H]1CCc1ccnc2ccc(OC)cc12 [Example 26, 6-methoxy-4-{2-[3(S)-ethenyl-4(R)-piperidyl]-ethyl}-quinoline] | 2.6
c1ccc(-c2cc(CCC3CCNCC3)c3ccccc3n2)cc1 [Example 16, 2-phenyl-4-[2-(4-piperidyl)-ethyl]-quinoline] | 1.3
C=C[C@H]1CNCC[C@H]1CCc1ccnc2ccc(OC)cc12 [Example 14, 6-METHOXY-4-{2-[3(R)-ETHENYL-4(R)-PIPERIDYL]-ETHYL}-QUINOLINE] | 5

biological target: cerebral receiving sites of the benzodiazepines; assay: Displacement of tritiated Diazepam from its binding site (method of MOHLER et al.); design: species or system rat; details: displacement of tritiated Diazepam (3H Diazepam) from its binding site
Method: The medicaments of the class of benzodiazepines are used as anticonvulsivants, as hypnotics and for the treatment of states of anxiety and of various psychoneurotic states for treatment of warm blooded mammals. The presence of specific receptors of the benzodiazepines in the membranes of the rat's brain has been shown [SQUIRES et al., Nature, 266, (1977), 732] and the degree of affinity of the benzodiazepines for these receptors, which is measured by their aptitude for displacing the tritiated Diazepam from its binding sites, is in good correlation with the pharmacodynamic effects observed on the animal and on man.
I--AFFINITY FOR THE CEREBRAL RECEIVING SITES OF THE BENZODIAZEPINES
The products have been tested according to the method of MOHLER et al, Life Science, 1977, 20, 2101, which is relied on herein.

Compound | Ki [µM]
c1ccc(CCN2CCC(CCc3cc(-c4ccccc4)nc4ccccc34)CC2)cc1 [Example 22, 4-{2-[1-(2-phenyl-ethyl)-4-piperidyl]-ethyl}-2-phenyl-quinoline] | 0.5
Clc1ccc(-c2cc(CCC3CCNCC3)c3ccccc3n2)cc1 [Example 17, 2-(4-chloro-phenyl)-4-[2-(4-piperidyl)-ethyl]-quinoline] | 0.4
COc1ccc(-c2cc(C(=O)CC3CCNCC3)c3ccccc3n2)cc1 [Example 9, 1-[2-(4-methoxy-phenyl)-4-quinolyl]-2-(4-piperidyl)ethanone] | 5
C=C[C@H]1CNCC[C@H]1CC(=O)c1cc(-c2ccccc2)nc2ccccc12 [Example 11, 2-[3(R)-ethenyl-4(S)-piperidyl]-1-(2-phenyl-4-quinolyl)ethanone] | 2
COc1ccc(-c2cc(CCC3CCNCC3)c3ccccc3n2)cc1 [Example 18, 2-(4-METHOXY-PHENYL)-4-[2-(4-PIPERIDYL)-ETHYL]-QUINOLINE] | 1.3
COc1ccc2nccc(CCC3CCNCC3)c2c1 [Example 13, 6-METHOXY-4-[2-(4-PIPERIDYL)-ETHYL]-QUINOLINE] | 7
O=C(CC1CCNCC1)c1cc(-c2ccccc2)nc2ccccc12 [Example 5, 1-(2-phenyl-4-quinolyl)-2-(4-piperidyl)-ethanone] | 0.5
CN1CCC(CCc2cc(-c3ccccc3)nc3ccccc23)CC1 [Example 23, 4-[2-(1-METHYL-4-PIPERIDYL)-ETHYL]-2-PHENYL-QUINOLINE] | 0.1
O=C(CC1CCNCC1)c1cc(-c2ccc(Cl)cc2)nc2ccccc12 [Example 7, 1-[2-(4-CHLORO-PHENYL)-4-QUINOLYL]-2-(4-PIPERIDYL)-ETHANONE] | 4.5
c1ccc(-c2cc(CCC3CCNCC3)c3ccccc3n2)cc1 [Example 16, 2-phenyl-4-[2-(4-piperidyl)-ethyl]-quinoline] | 0.2
Cc1ccc(-c2cc(C(=O)CC3CCNCC3)c3ccccc3n2)cc1 [Example 8, 1-[2-(4-METHYL-PHENYL)-4-QUINOLYL]-2-(4-PIPERIDYL)-ETHANONE] | 1.6
O=C(CC1CCNCC1)c1cc(-c2ccc(F)cc2)nc2ccccc12 [Example 6, 1-[2-(4-fluoro-phenyl)-4-quinolyl]-2-(4-piperidyl)-ethanone] | 8
c1ccc2c(CCC3CCNCC3)ccnc2c1 [Example 24, 4-[2-(4-piperidyl)-ethyl]-quinoline] | 13
COc1ccc2nc(-c3ccccc3)cc(CCC3CCNCC3)c2c1 [Example 25, 6-methoxy-2-phenyl-4-[2-(4-piperidyl)-ethyl]-quinoline] | 11
C=C[C@H]1CNCC[C@H]1CC(=O)c1ccnc2ccc(OC)cc12 [Example 3, 2-[3(R)-ethenyl-4(S)-piperidyl]-1-(6-methoxy-4-quinolyl)-ethanone] | 16
C=C[C@H]1CNCC[C@H]1CCc1ccnc2ccc(OC)cc12 [Example 14, 6-METHOXY-4-{2-[3(R)-ETHENYL-4(R)-PIPERIDYL]-ETHYL}-QUINOLINE] | 5
Cc1ccc(-c2cc(CCC3CCNCC3)c3ccccc3n2)cc1 [Example 19, 2-(4-METHYL-PHENYL)-4-[2-(4-PIPERIDYL)-ETHYL]-QUINOLINE] | 0.6
